Source: patent publication US7923204B2, “Forward mutation assay based on 5-fluorouracil resistance” (priority 2003, dated 2011)
Structures can show the parent of a compound that is named as a salt. Where two headings read alike, the source gives them in different places. Marks after values point to notes of the source that are not given here.

What was measured:
Salmonella = conditions: cited from earlier work
FU100 [1] = conditions: for Lowest Positive Dose: lowest dose tested giving a positive response; for response in the 5-FU Assay (in words): text and figure legend (FIG. 6), with or without S9
Procedure: Briefly, in order to practice the disclosed mutation assay one-ml aliquots of exponentially growing bacteria are exposed to the test agent for two hours in the presence and absence of a metabolic activation system, such as a mammalian (i.e., rat, hamster or human) liver homogenate (S9-fraction or liver microsomal enzymes). The aliquots are then diluted, allowed to grow for 3 hours, and assessed for treatment-related toxicity/inhibition by optical density. The cultures are subsequently diluted a second time and grown overnight to permit full recovery from toxicity and to allow expression of the FU^R phenotype. Samples of the cultures are then plated in 384-well microtiter dishes in the presence of 2 μg/ml 5-FU and the pH-sensitive indicator bromcresol purple. Three days later positive wells containing FU^R colonies are detected by their yellow color and enumerated. Treated cultures are then compared to control plates to determine genotoxic activity.
For each mutation experiment, two frozen 1-ml aliquots of FU100 were quickly thawed in a 37° C. water bath, pelleted by centrifugation, washed to remove the DMSO, and suspended in 35 mL of MinE medium. The culture was shaken for approximately 1 hour at 37° C. until the optical density at 600 nm (OD600) reached the target density of 0.3. A 16-ml aliquot of culture was added to each of two 50-ml tubes containing 3.6 ml of a NADPH-generating system (5.6 mM glucose-6-phosphate, 4.5 mM NADP+, 5 mM sucrose, 110 mM Na2HPO4, 37 mM KCl, and 9 mM MgCl2) and either 0.4 ml rat liver S-9 or an equal volume of sodium phosphate buffer. Aliquots of these mixtures were distributed into three 12-well cluster dishes (one for exposure with S-9, one for exposure without S-9, one for controls with and without S-9), and exposed to test compounds as 1-ml aliquots for 2 hour as outlined in FIG. 1.
Following treatment, the 1-ml aliquots were transferred into 9 ml of warm MinE medium in a 50 ml tube and incubated at 37° C. on a rotary wheel for 3 hours. Next, 20 ml of medium was added to each culture tube and 0.25 ml aliquots were transferred to a 96-well plate for OD600 measurements to assess toxicity (OD Day 1). […] Bulk cultures were then incubated overnight in the dark at 30° C. to permit recovery from toxicity and to allow time for the test cells to express the FU^R phenotype.
The next day, OD600 was again assessed to adjust cell number plated on 5-FU plates (OD Day 2; 100 μl of the culture diluted with 150 μl MinE medium for OD600 measurements). For plating, a 35 μl aliquot of each culture was added to 31.4 mL of MinE medium with 2 μg/ml of 5-FU and 10 μg/ml of bromcresol purple. The mixture was then dispersed into a 384-well plate (75 μl/well) and placed at 37° C. for 3 days in a humidified incubator.
The data obtained for both survival (OD day 1), relative number of cells plated (OD day 2), and number of positive wells were imported into an Excel template.
Table 8 summarizes the criteria for positive result in 5-FU assay using the FU100 tester strain described and claimed herein. […] A positive compound was defined when two or more doses met the aforementioned criteria.

chromosome aberrations = conditions: NTP Results Report 12 Aug. 2002; cited from earlier work
[2] = system: sister chromatid exchange; conditions: NTP Results Report 12 Aug. 2002; cited from earlier work
FU100 [3] = system: FU100
[4] = NTP Results Report 12 Aug. 2002 or cited reference (footnotes f, g, i, j)
[5] = in the presence of S9 activation (+), FU100, 2 h exposure
[6] = without S9 activation (−), FU100, 2 h exposure
[7] = in the presence of S9 activation (+), approximate, first dose with greater than 50% survival by optical density on Day 1
[8] = without S9 activation (−), approximate, first dose with greater than 50% survival by optical density on Day 1
[9] = in the presence of S9 activation (+)

## OCc1ccccc1 [Benzyl Alcohol]
Salmonella; [4]
  NTP Results: SA = Salmonella: −
FU100 [1]; [5]
  Results (5-FU assay): Neg
FU100 [1]; [6]
  Results (5-FU assay): Neg
Chromosome aberrations
  NTP Results: CA = chromosome aberrations: +
[2]
  NTP Results: SC = sister chromatid exchange: +^w
FU100 [3]; [7]
  LD50: >500 µg/mL
FU100 [3]; [8]
  LD50: >900 µg/mL

## C[C@H](CCC(=O)O)[C@H]1CC[C@H]2[C@@H]3CC[C@@H]4C[C@H](O)CC[C@]4(C)[C@H]3CC[C@]12C [Lithocholic Acid]
FU100 [1]; [5]
  Results (5-FU assay): Neg
FU100 [1]; [6]
  Results (5-FU assay): Neg
FU100 [3]; [7]
  LD50: >2000 µg/mL
FU100 [3]; [8]
  LD50: >2000 µg/mL

## Cl.Nc1c2ccccc2nc2ccccc12.O [9-Aminoacridine•HCl•H2O]
Salmonella; [4]
  NTP Results: SA = Salmonella: (SA+, CA+, SC+)
FU100 [1]; [5]
  Results (5-FU assay): Pos
FU100 [1]; [9]
  Lowest Positive Dose: 16 µg/mL
FU100 [1]
  response in the 5-FU Assay (in words): positive compounds in toxic concentrations
FU100 [1]; [6]
  Results (5-FU assay): Pos
FU100 [1]; without S9 activation (−)
  Lowest Positive Dose: 16 µg/mL
Chromosome aberrations
  NTP Results: CA = chromosome aberrations: (SA+, CA+, SC+)
[2]
  NTP Results: SC = sister chromatid exchange: (SA+, CA+, SC+)
FU100 [3]; [7]
  LD50: >9 µg/mL
FU100 [3]; [8]
  LD50: >9 µg/mL

## CN(N=O)C(N)=O [N-Nitroso-N-methylurea]
Salmonella; [4]
  NTP Results: SA = Salmonella: (SA+)
FU100 [1]; [5]
  Results (5-FU assay): Pos
FU100 [1]; [9]
  Lowest Positive Dose: 5.0 µg/mL
FU100 [1]; [6]
  Results (5-FU assay): Pos
FU100 [1]; without S9 activation (−)
  Lowest Positive Dose: 5.0 µg/mL
FU100 [3]; [7]
  LD50: >90 µg/mL
FU100 [3]; [8]
  LD50: >90 µg/mL

## COc1ccc2nc3cc(Cl)ccc3c(NCCCNCCCl)c2c1 [ICR-191]
Salmonella; [4]
  NTP Results: SA = Salmonella: (SA+)
FU100 [1]; [5]
  Results (5-FU assay): Pos
FU100 [1]; [9]
  Lowest Positive Dose: 3.2 µg/mL
FU100 [1]
  response in the 5-FU Assay (in words): positive compounds in non-toxic concentrations
FU100 [1]; [6]
  Results (5-FU assay): Pos
FU100 [1]; without S9 activation (−)
  Lowest Positive Dose: 0.2 µg/mL
FU100 [3]; [7]
  LD50: >10 µg/mL
FU100 [3]; [8]
  LD50: >3 µg/mL

## O=c1ccc2ccccc2o1 [Coumarin]
FU100 [1]; [5]
  Results (5-FU assay): Pos
FU100 [1]; [9]
  Lowest Positive Dose: 50 µg/mL
FU100 [1]; [6]
  Results (5-FU assay): Neg
FU100 [3]; [7]
  LD50: >150 µg/mL
FU100 [3]; [8]
  LD50: >900 µg/mL

## COS(C)(=O)=O [Methyl Methanesulfonate]
Salmonella; [4]
  NTP Results: SA = Salmonella: (SA+)
FU100 [1]; before overnight grow back was introduced
  plating efficiency of FU^R mutants in treated culture at the end of day 1: significantly suppressed
FU100 [1]; [5]
  Results (5-FU assay): Pos
FU100 [1]; [9]
  Lowest Positive Dose: 10 µg/mL
FU100 [1]
  response in the 5-FU Assay (in words): positive compounds in non-toxic concentrations
FU100 [1]; [6]
  Results (5-FU assay): Pos
FU100 [1]; without S9 activation (−)
  Lowest Positive Dose: 0.6 µg/mL
FU100 [3]; [7]
  LD50: >100 µg/mL
FU100 [3]; [8]
  LD50: >100 µg/mL

## Nc1ccc2cc3ccc(N)cc3nc2c1 [Proflavine HCl]
Salmonella; [4]
  NTP Results: SA = Salmonella: (SA+)
FU100 [1]; [5]
  Results (5-FU assay): Pos
FU100 [1]; [9]
  Lowest Positive Dose: 0.1 µg/mL
FU100 [1]; [6]
  Results (5-FU assay): Pos^w
FU100 [1]; without S9 activation (−)
  Lowest Positive Dose: 16 µg/mL
FU100 [3]; [7]
  LD50: >10 µg/mL
FU100 [3]; [8]
  LD50: >10 µg/mL

## O=[N+]([O-])c1ccc(O)cc1 [p-Nitrophenol]
Salmonella; [4]
  NTP Results: SA = Salmonella: −
FU100 [1]; [5]
  Results (5-FU assay): Neg
FU100 [1]; [6]
  Results (5-FU assay): Neg
Chromosome aberrations
  NTP Results: CA = chromosome aberrations: +
[2]
  NTP Results: SC = sister chromatid exchange: −
FU100 [3]; [7]
  LD50: >50 µg/mL
FU100 [3]; [8]
  LD50: >50 µg/mL

## Cc1ccc2cc3c(ccc4ccccc43)c3c2c1CC3 [20-Methylcholanthrene]
Salmonella; [4]
  NTP Results: SA = Salmonella: +
FU100 [1]; [5]
  Results (5-FU assay): Pos
FU100 [1]; [9]
  Lowest Positive Dose: 0.2 µg/mL
FU100 [1]; [6]
  Results (5-FU assay): Pos
FU100 [1]; without S9 activation (−)
  Lowest Positive Dose: 5 µg/mL
Chromosome aberrations
  NTP Results: CA = chromosome aberrations: −
[2]
  NTP Results: SC = sister chromatid exchange: +
FU100 [3]; [7]
  LD50: >50 µg/mL
FU100 [3]; [8]
  LD50: >50 µg/mL

## O=C1NS(=O)(=O)c2ccccc21 [Saccharin]
Salmonella
  NTP Results: SA = Salmonella: (SA−)
FU100 [1]
  Results (5-FU assay): Neg
FU100 [3]; Salmonella typhimurium
  LD50: >5000 µg/mL

## CN(C)[C@@H]1C(O)=C(C(N)=O)C(=O)[C@@]2(O)C(O)=C3C(=O)c4c(O)cccc4[C@@](C)(O)[C@H]3C[C@@H]12 [Tetracycline HCl]
Salmonella; [4]
  NTP Results: SA = Salmonella: −
FU100 [1]
  Results (5-FU assay): Neg
Chromosome aberrations
  NTP Results: CA = chromosome aberrations: −
[2]
  NTP Results: SC = sister chromatid exchange: −
FU100 [3]; [7]
  LD50: >0.1 µg/mL
FU100 [3]; [8]
  LD50: >0.1 µg/mL

## C[S+](C)[O-] [Dimethyl Sulfoxide]
Salmonella; [4]
  NTP Results: SA = Salmonella: (SA−, CA−, SC−)
FU100 [1]; [5]
  Results (5-FU assay): Neg
FU100 [1]; [6]
  Results (5-FU assay): Neg
Chromosome aberrations
  NTP Results: CA = chromosome aberrations: (SA−, CA−, SC−)
[2]
  NTP Results: SC = sister chromatid exchange: (SA−, CA−, SC−)
FU100 [3]; [7]
  LD50: >5000 µg/mL
FU100 [3]; [8]
  LD50: >5000 µg/mL
